Results: publication PMC12606464, “Investigating NFE2L1 activators for targeted protein aggregate clearance: a follow-up study” (RSC Medicinal Chemistry, 2025)

Assays:
[1] = tested on: HCT116 cells expressing EGFP-HttQ74; experiment: PolyQ toxicity assay (EGFP-HttQ74, alamarBlue) in HCT116 WT and DDI2 KO cells; assay type: cell-based, human; details: 48 h
Procedure: Fig. 3 (A) HEK293 cells were treated with RUN compounds at a concentration of 7.5 μM for 16 hours. DMSO was used as a vehicle control. Proteasome chymotrypsin-like activity was measured in cell lysates at 37 °C. Data came from three biological replicates (n = 3). Statistical analysis was done using ratio paired t-tests corrected for multiple comparisons with Holm–Šídák's method (α = 0.05). *p < 0.05. Detailed results of the analysis are shown in SI Table S7. […] HCT116 parental cells (WT) and two independent DDI2 knockout clones (KO 04 and KO 11), in which NFE2L1 activation is impaired, were transiently transfected with plasmids encoding non-aggregating EGFP-HttQ23 or aggregation-prone EGFP-HttQ74. Cells were treated with 1 or 3 μM RUN-89 for 48 hours, and viability was measured using the alamarBlue assay. […] Data are shown as the Geomean ± GeoSD from four independent biological replicates (n = 4). Statistical analysis was performed on log2-transformed values using two-way repeated-measures ANOVA followed by Šídak's multiple comparison test. (C right) Parental SH-SY5Y cells (without α-synuclein expression) were treated in the same manner. (C left) The protective effect of RUN compounds was assessed by rotenone-induced α-synuclein proteotoxicity in SH-SY5Y cells, which mimics the PD-like phenotype. Cells were pre-treated with increasing concentrations of RUN compounds (0.312, 0.625, 1.25, and 2.5 μM) for 4 hours and then rotenone (1.125 μM) treatment was done for 24 hours.
To further evaluate the protective capacity of RUN-89 in a polyQ aggregation model, we transiently transfected HCT116 parental cells (wt) and DDI2 knockout clones (KO4 and KO11) with plasmids encoding either a non-aggregating EGFP-HttQ23 or an aggregation-prone EGFP-HttQ74 construct. This model is widely used to study Huntington's disease (HD), a prototypical polyglutamine expansion disorder caused by expanded CAG repeats in the huntingtin gene.[67–69] […] Cells were treated with increasing concentrations of RUN-89 (1 and 3 μM) for 48 h, and viability was assessed using the alamarBlue assay (Fig. 3B). […]

[2] = tested on: EGFP-HttQ74 aggregates in U2OS cells; experiment: Analysis of polyQ (EGFP-HttQ74) aggregation in U2OS cells; assay type: cell-based; details: U2OS EGFP-HttQ74, 5 μM, 24 h, with BOC-D-FMK
Procedure: Considering these earlier findings, we assessed the impact of the most promising compound, RUN-89, on protein aggregate formation in cells. U2OS cells were transfected with the EGFP-HttQ74 plasmid, a model for polyglutamine (polyQ) aggregation, and then treated with the caspase inhibitor BOC-D-FMK in combination with either 5 μM RUN compounds or a vehicle control for 24 hours prior to the microscopy analysis (Fig. 4). […] A decrease in aggregate size leads to an increase in their number, as the formation of large aggregates is prevented. Instead, multiple smaller aggregates are formed, which, according to our assumption, could be more easily degraded (Fig. 4B). […] Representative fluorescence microscopy images of U2OS cells expressing EGFP-HttQ74 treated with RUN-89 are shown in Fig. 4D, highlighting the difference between RUN-89-treated and vehicle-treated cells.
U2OS cells expressing EGFP-HttQ74 were treated for 24 hours with either the caspase inhibitor BOC-D-FMK, 5 μM RUN compounds, or DMSO (negative control). In total, cells from three independent experiments were analyzed (n = 3) and from every well 10 areas were screened. […] The volume value was measured in voxels. […] (D) Fluorescence microscopy images represent U2OS cells overexpressing EGFP-HttQ74 after treatment with RUN-89 and DMSO for 24 h. […]
instructions. […] Data were expressed as a fold change relative to the corresponding DMSO control. […]

Q: `COc1ccc(/C=C2\CC(NC(=O)C3CCCC3)C/C(=C\c3ccc(OC)c(OC)c3)C2=O)cc1OC` (stereo not drawn) [RUN-89] was tested. Which “Protective effect in DDI2-deficient clones expressing HttQ74” value ([1]; 1 and 3 μM) did it give?
A: strongly reduced

Q: What about the “Survival of wild-type cells expressing HttQ74” value ([1]; 1 and 3 μM) of the same molecule?
A: significantly improved survival

Q: And the “Viability of EGFP-HttQ74 cells (mean), KO 04, 1 μM” value ([1]; HCT116 DDI2-/- KO 04, 1 μM, alamarBlue)?
A: 41.44

Q: What about the “Viability of EGFP-HttQ74 cells (mean), KO 04, 3 μM” value ([1]; HCT116 DDI2-/- KO 04, 3 μM, alamarBlue) of the same molecule?
A: 16.49

Q: What about the “Viability of EGFP-HttQ74 cells (mean), KO 11, 1 μM” value ([1]; HCT116 DDI2-/- KO 11, 1 μM, alamarBlue) of the same molecule?
A: 59.5

Q: And the “Viability of EGFP-HttQ74 cells (mean), KO 11, 3 μM” value ([1]; HCT116 DDI2-/- KO 11, 3 μM, alamarBlue)?
A: 37.35

Q: What about the “Viability of EGFP-HttQ74 cells (mean), WT, 1 μM” value ([1]; HCT116 WT, 1 μM, alamarBlue) of the same molecule?
A: 72.36

Q: And the “Viability of EGFP-HttQ74 cells (mean), WT, 3 μM” value ([1]; HCT116 WT, 3 μM, alamarBlue)?
A: 79.66

Q: And the “Number of aggregates per cell” value [2]?
A: 4.545
